The numbers were not newly measured in patent US20070149500A1, “Compounds, compositions, and methods” (priority 2003, published 2007), which cites them from elsewhere.

Structures are written as SMILES.

For this series, the system named is A549 cells. To be noted: data provided by National Cancer Institute.
Consider `CC(=O)O[C@H]1C(=O)[C@@]2(C)[C@H]([C@H](OC(=O)c3ccccc3)[C@]3(O)C[C@H](OC(=O)[C@H](O)[C@@H](NC(=O)c4ccccc4)c4ccccc4)C(C)=C1C3(C)C)[C@]1(OC(C)=O)CO[C@@H]1C[C@@H]2O` [paclitaxel], for which the concentration for 50% growth inhibition (GI50) was 4 nM.

On to `NC(=O)NO` [hydroxyurea], for which the GI50 was 500000 nM.

With `O=c1[nH]cc(F)c(=O)[nH]1` [5-fluorouracil], the GI50 was 1000 nM.

Broadly, the GI50 is the concentration giving 50% growth inhibition.
